Tested on: Human umbilical vein endothelial cells (HUVECs)
Assay: HUVEC-Matrigel tube formation assay
Assay type: cell-based
Details: free S1P solution, 17 h
Experimental: The electrospun meshes were punched into circles of 6.3 mm in diameter, weighed and sterilized with UV irradiation (254 nm, 1 h for each side). Fresh S1P solutions in PBS were carefully loaded onto each mesh (for S1P release study: 5 μL of 0.76-μg/μL solution to achieve 3.8-μg S1P loading per mesh; for tube formation assay: 2 or 10 μL of 0.19-μg/μL solution to achieve 0.38-μg or 1.90-μg S1P loading per mesh). The S1P-loaded meshes were incubated at 37° C. for 1 h and 4° C. for another 4 h before they were air-dried in laminar flow hood overnight.
Human umbilical vein endothelial cells (HUVECs, ATCC, passage 6), were cultured on gelatin-coated plates in M199 medium with 20% fetal bovine serum (FBS), 3 ng/mL bFGF, 5 units/mL heparin and 100 U/100 μg/mL Pen/Strep at 37° C. under 5% CO2. The 96-well culture plate was coated with 50 μL/well growth factor reduced Matrigel and incubated at 37° C. for 0.5 h to allow Matrigel to solidify. Then HUVECs suspended in 100 μL of M199 medium with 0.1% FBS and 100 U/100 μg/mL Pen/Strep were seeded on the Matrigel at 2×10^4 cells/well. After 30 min of cell attachment, PBS solutions of S1P or S1P-loaded meshes were carefully added to each well, followed by continued incubation at 37° C. for 17 h. After removing the meshes and culture media, the HUVECs were fixed with 10% formalin saline solution and imaged with an Axiovert 40 CFL microscope equipped with a QImaging camera at 25× and 100× magnifications. The total tube length in each well (n=3-4) was quantified by ImageJ (NIH).

CCCCCCCCCCCCC/C=C/[C@@H](O)[C@@H](N)COP(=O)(O)O [S1P, Sphingosine-1-phosphate]
total tube length (1-μM, no polymer carrier): increased | total tube length (10-μM, no polymer carrier): proangiogenic effect was compromised | total tube length (50-μM, vs. no-S1P control): significantly inhibited tube formation

From patent US9999704B2, “Amphiphilic degradable polymers for immobilization and sustained delivery of biomolecules” (University of Massachusetts, priority 2014, dated 2018)
